Experimental data: article PMC9238401, “Peptide Conjugates Derived from flg15, Pep13, and PIP1 That Are Active against Plant-Pathogenic Bacteria and Trigger Plant Defense Responses” (Applied and Environmental Microbiology, 2022)

Columns and labels:
[1] = test system: Erwinia amylovora PMV6076; test: In vitro growth inhibition (MIC); assay type: cell-based; conditions: TSB, 25°C, 48 h, OD 600 nm (Bioscreen C), three replicates, experiment repeated twice; MIC = lowest concentration with no growth, given as range
Method: (§1) Peptide conjugates were tested for in vitro growth inhibition of the plant-pathogenic bacteria E. amylovora PMV6076, Xanthomonas arboricola pv. pruni CFBP5563, X. fragariae Xf349-9A, X. axonopodis pv. vesicatoria 2133-2, P. syringae pv. actinidiae Psa3700.1.1, and P. syringae pv. syringae EPS94 (Fig. 1, Table SA). The corresponding monomers (flg15, BP13, Pep13, PIP1, BP16, BP100, BP143, BP387, BP475, and KSL-W) were included for comparison.
(§2) The following plant-pathogenic bacterial strains were used: Erwinia amylovora PMV6076 (Institut National de la Recherche Agronomique, Angers, France), Pseudomonas syringae pv. syringae EPS94 (Institut de Tecnologia Agroalimentària, University of Girona, Spain), Xanthomonas axonopodis pv. vesicatoria 2133-2, X. axonopodis pv. vesicatoria Xav206 (Xav) (D. F. Ritchie, Department of Plant Pathology, North Carolina State University), Pseudomonas syringae pv. actinidiae Psa3700.1.1, Xanthomonas fragariae Xf349-9A (Instituto Valenciano de Investigaciones Agrarias, Valencia, Spain), and Xanthomonas arboricola pv. pruni CFBP5563 (Collection Française de Bactéries Associées aux Plantes, Angers, France). All bacteria except for X. fragariae were stored in Luria Bertani (LB) broth supplemented with glycerol (20%) and maintained at −80°C. For X. fragariae, medium B ([80]) was used instead of LB. E. amylovora, X. arboricola pv. pruni, P. syringae pv. syringae, and P. syringae pv. actinidiae were scraped from the agar medium after growing for 24 h at 25°C, and X. axonopodis pv. vesicatoria and X. fragariae, after growing for 48 h at 25°C. The cell material was suspended in sterile water to obtain a suspension of 10^8 CFU mL^−1.
(§3) Lyophilized peptides were solubilized in sterile Milli-Q water to a final concentration of 1 mM and filter-sterilized through a 0.22-μm pore filter. […] Then, 20 μL of each dilution were mixed in a microtiter plate well with 20 μL of the corresponding suspension of the bacterial indicator, 160 μL of Trypticase soy broth (TSB) (bioMérieux, France) to a total volume of 200 μL. Three replicates for each combination of strain, compound, and concentration were used. Microbial growth was determined by optical density measurement at 600 nm (Bioscreen C; Labsystem, Helsinki, Finland). Microplates were incubated at 25°C with 20 s of shaking before hourly absorbance measurement for 48 h. The experiment was repeated twice. The MIC was taken as the lowest compound concentration with no growth at the end of the experiment.

[2] = test system: Pseudomonas syringae pv. actinidiae Psa3700.1.1; test: In vitro growth inhibition (MIC); assay type: cell-based; conditions: TSB, 25°C, 48 h, OD 600 nm (Bioscreen C), three replicates, experiment repeated twice; MIC given as range
Method: as §1, §2, §3

[3] = test system: Pseudomonas syringae pv. syringae EPS94; test: In vitro growth inhibition (MIC); assay type: cell-based; conditions: TSB, 25°C, 48 h, OD 600 nm (Bioscreen C), three replicates, experiment repeated twice; MIC given as range
Method: as §1, §2, §3

[4] = test system: Xanthomonas arboricola pv. pruni CFBP5563; test: In vitro growth inhibition (MIC); assay type: cell-based; conditions: TSB, 25°C, 48 h, OD 600 nm (Bioscreen C), three replicates, experiment repeated twice; MIC given as range
Method: as §1, §2, §3

[5] = test system: Xanthomonas fragariae Xf349-9A; test: In vitro growth inhibition (MIC); assay type: cell-based; conditions: TSB, 25°C, 48 h, OD 600 nm (Bioscreen C), three replicates, experiment repeated twice; MIC given as range
Method: as §1, §2, §3

[6] = test system: Xanthomonas axonopodis pv. vesicatoria 2133-2; conditions: TSB, 25°C, 48 h, OD 600 nm (Bioscreen C), three replicates, experiment repeated twice; MIC given as range
Source text: The corresponding monomers (flg15, BP13, Pep13, PIP1, BP16, BP100, BP143, BP387, BP475, and KSL-W) were included for comparison.
as §2, §3

horse erythrocytes = conditions: TRIS buffer pH 7.2, 1 h, 37°C, absorbance 540 nm, relative to melittin 100 μM, ± confidence interval (α = 0.05)
Method: The toxicity of peptide conjugates to eukaryotic cells was determined as the ability to lyse erythrocytes (Table SB).
The hemolytic activity of the compounds was evaluated by determining hemoglobin release from erythrocyte suspensions of horse blood (5% vol/vol) (Oxoid) as previously described ([45]). Blood was centrifuged at 6000g for 5 min, washed three times with TRIS buffer (10 mM TRIS, 150 mM NaCl, pH 7.2) and diluted 10 times. Compounds were solubilized in TRIS buffer at 750, 500, 300, and 100 μM and mixed with horse erythrocytes (1:1 vol/vol). The mixture was incubated with continuous shaking for 1 h at 37°C. Then, the tubes were centrifuged at 3500g for 10 min, 80-μL aliquots of the supernatant were transferred to 100-well microplates (Bioscreen) and diluted with 80 μL water, and the absorbance measured at 540 nm (Bioscreen). […] The percentage of hemolysis (H) was calculated using the equation H = 100 × ([Op − Ob]/[Om − Ob]), where Op is the density for a given compound concentration, Ob is that for the buffer, and Om is that for the melittin positive control.

tobacco leaves = test: Effect of peptide infiltration on tobacco leaves (phytotoxicity); assay type: in vivo
Method: Peptide conjugates were also assayed for their toxicity in tobacco leaves (Fig. 3, Table SC). After 48 h of infiltration, melittin caused a necrotic area of 0.70 and 2.17 cm in diameter at 50 and 250 μM, respectively. The monomers were not phytotoxic at those concentrations; all of them led to lesions of ≤1.2 cm at 250 μM. All peptide conjugates were also less phytotoxic than melittin, causing necrotic lesions between 0.26 and 1.67 cm in diameter at 250 μM. In particular, 15 of the 30 conjugates led to a necrotic area of <1 cm at this concentration. In general, sequences incorporating BP13 were among the most phytotoxic.
Peptide conjugates were evaluated for their effect on infiltration on tobacco leaves as described previously ([41]). Peptide solutions of 50, 150, and 250 μM were infiltrated (100 μL) into the mesophylls of fully expanded tobacco leaves. Infiltrations were carried out in a single leaf, and for each peptide and dose, at least three leaves randomly distributed in different plants were inoculated. Control infiltrations with water (negative control) or melittin (positive control) at the same molar concentration were performed. The appearance of symptoms on the leaves was followed for 48 h after infiltration and measured as lesion diameter.

[7] = HPLC retention time as indicator of relative hydrophobicity; assay type: physicochemical; conditions: chromatographic, Kromasil 100 C18 (4.6 mm × 40 mm, 3 μm), linear gradient 2 to 100% B over 12 min, 1 mL/min; A 0.1% aqueous TFA, B 0.1% TFA in CH3CN; used as indicator of relative hydrophobicity
Method: The parameters related to the structure of the peptide conjugates (sequence, charge, hydrophobic ratio [HR], and HPLC retention time), as well as their physicochemical properties (grand average hydropathicity [GRAVY] and hydrophobic moment [<μH>]) obtained from the online programs ProtParam (Expasy server) and HeliQuest are included in Table 1.
Peptides were analyzed under standard analytical HPLC conditions. Method A: peptides were analyzed with a Dionex liquid chromatography instrument composed of a UV/Vis Dionex UVD170U detector, a P680 Dionex pump, an ASI-100 Dionex automatic injector, and Chromeleon 6.60 software. Detection was performed at a wavelength of 220 nm. Solvent A was 0.1% aqueous trifluoroacetic acid (TFA), and solvent B was 0.1% TFA in CH3CN. Analyses were carried out with a Kromasil 100 C18 (4.6 mm × 40 mm, 3 μm) column with a linear gradient of 2 to 100% B over 7 min at a flow rate of 1 mL/min. Method B: peptides were analyzed with a 1260 Infinity II liquid chromatography instrument (Agilent Technologies) composed of a diode array detector HS, a quaternary pump VL, a 1260 vial sampler, and OpenLab CDS ChemStation software. Analyses were carried out with a Kromasil 100 C18 (4.6 mm × 40 mm, 3 μm) column with a linear gradient of 2 to 100% B over 12 min at a flow rate of 1 mL/min.

[8] = 100 μL infiltrated into mesophyll, lesion diameter 48 h after infiltration, at least three leaves, ± confidence interval (α = 0.05)

Substance | MIC, Ea [1] [µM] | MIC, Psa [2] [µM] | MIC, Pss [3] [µM] | MIC, Xap [4] [µM] | MIC, Xf [5] [µM] | MIC, Xav [6] [µM] | Percent hemolysis at 50 μM (horse erythrocytes) [%] | Percent hemolysis at 150 μM (horse erythrocytes) [%] | Percent hemolysis at 250 μM (horse erythrocytes) [%] | Percent hemolysis at 375 μM (horse erythrocytes) [%] | Size of the lesions in infiltrated tobacco leaves at 50 μM (tobacco leaves; [8]) [cm] | Size of the lesions in infiltrated tobacco leaves at 150 μM (tobacco leaves; [8]) [cm] | Size of the lesions in infiltrated tobacco leaves at 250 μM (tobacco leaves; [8]) [cm] | tR (min), HPLC retention time (method B) [7] [min] | Size of the lesions in infiltrated tobacco leaves at 50 μM (tobacco leaves; in vivo) [cm] | Size of the lesions in infiltrated tobacco leaves at 150 μM (tobacco leaves; in vivo) [cm] | Size of the lesions in infiltrated tobacco leaves at 250 μM (tobacco leaves; in vivo) [cm]
KKLFKKILKYL-RINSAKDDAAGLQIA-OH [BP100-flg15, peptide conjugate, BP100 at N-terminus, flg15 at C-terminus] | 6.2 to 12.5 | 1.6 to 3.1 | 3.1 to 6.2 | 1.6 to 3.1 | 6.2 to 12.5 | 3.1 to 6.2 | 1 ± 0.9 | 1 ± 0.8 | 3 ± 0.0 | 6 ± 1.6 | 0.10 ± 0.12 | 0.28 ± 0.14 | 0.36 ± 0.13 | 4.96 |  |  | 
H-YGIHTHKKVVFWVKFK-NH2 [PIP1-KSLW] | 12.5 to 25 | 6.2 to 12.5 | 6.2 to 12.5 | 3.1 to 6.2 | 6.2 to 12.5 | 3.1 to 6.2 | 7 ± 0.8 | 7 ± 1.1 | 6 ± 0.4 | 6 ± 0.4 |  |  |  | 4.81 | 0 ± 0 | 0.47 ± 0.24 | 0.70 ± 0.11
H-FKLFKKILKVLKKVVFWVKFK-NH2 [BP13-KSLW] | > 50 | 6.2 to 12.5 | 12.5 to 25 | 1.6 to 3.1 | 1.6 to 3.1 | 1.6 to 3.1 | 80 ± 11.2 | 90 ± 7.3 | 100 ± 8.4 | 99 ± 8.4 | 0.56 ± 0.23 | 1.00 ± 0.25 | 0.92 ± 0.36 | 7.02 |  |  | 
KKVVFWVKFK-RINSAKDDAAGLQIA-OH [KSLW-flg15, peptide conjugate, KSL-W at N-terminus, flg15 at C-terminus] | > 50 | > 50 | > 50 | > 50 | 12.5 to 25 | 6.2 to 12.5 | 4 ± 1.9 | 7 ± 3.4 | 8 ± 0.9 | 8 ± 2.7 | 0 ± 0 | 0.13 ± 0.09 | 0.26 ± 0.05 | 4.75 |  |  | 
Ac-KKLfKKILKK(COC3H7)L-RINSAKDDAAGLQIA-OH [BP475-flg15, peptide conjugate, lipopeptide BP475 at N-terminus, flg15 at C-terminus] | 12.5 to 25 | 3.1 to 6.2 | 6.2 to 12.5 | 1.6 to 3.1 | 25 to 50 | 3.1 to 6.2 | 1 ± 1.0 | 0 ± 0.2 | 1 ± 0.3 | 1 ± 0.3 | 0.43 ± 0.13 | 1.20 ± 0.23 | 1.23 ± 0.28 | 6.03 |  |  | 
RINSAKDDAAGLQIA-KKLFKKILKYL-NH2 [flg15-BP100, peptide conjugate, flg15 at N-terminus, BP100 at C-terminus] | 6.2 to 12.5 |  | 12.5 to 25 | 0.8 to 1.6 | 6.2 to 12.5 | 0.8 to 1.6 | 48 ± 4.1 | 52 ± 4.3 | 63 ± 2.4 | 66 ± 9.2 | 0.46 ± 0.10 | 0.80 ± 0.22 | 1.02 ± 0.24 | 6.29 |  |  | 
